The results in this text go back to patent publication US8404866B2, “Substituted heterocyclic mercaptosulfonamide metalloprotease inhibitors” (Florida State University Research Foundation, priority 2008, dated 2013).

Series [1] concerns the target T1, MMP-7 (MLN; human matrilysin) (Homo sapiens, UniProt P09237).
T1 sequence (P09237 95-267): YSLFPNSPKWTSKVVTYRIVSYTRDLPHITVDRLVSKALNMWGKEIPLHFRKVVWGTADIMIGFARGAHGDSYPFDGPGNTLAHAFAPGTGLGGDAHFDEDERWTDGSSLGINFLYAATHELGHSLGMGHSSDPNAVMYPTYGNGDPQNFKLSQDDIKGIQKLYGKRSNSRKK
The series can be described thus: Enzyme kinetic assay, inhibition of MMP-7. In kind it is biochemical. To be noted: for Ki: read-out: Ki (value in parentheses), MLN MMP-7; for IC50: 25° C., pH 7.5, substrate 1 μM, read-out: IC50 (value without parentheses), MLN MMP-7. The source says:
(§1) The following protocol was used to obtain the data found in the following table. Materials: The fluorescent peptide substrates for matrix metalloproteinases (MMPs) used were purchased from Bachem Chem. Co. The metal salts and Brij-35 were purchased from Fisher Scientific Inc. All other chemicals were purchased from Sigma-Aldrich Chem. Co. The sources and biochemical characterizations of multiple MMPs, including MMP-1/human fibroblast collagenase (HFC), MMP-2/human fibroblast gelatinase (HFG), MMP-8/human neutrophil collagenase (HNC), and MMP-9/human neutrophil gelatinase (HNG), MMP-7/human matrilysin (MLN), MMP-3/human fibroblast stromelysin-1 (HFS), human recombinant catalytic domain of membrane-type 1 matrix metalloproteinase (cdMT1-MMP), catalytic domain of MMP-12/metalloelastase (cdMET), and MMP-26/human endometase (EDM) were described previously (Sang, Q. X., Birkedal-Hansen, H., and Van Wart, H. E. Proteolytic and non-proteolytic activation of human neutrophil progelatinase B. Biochim. Biophys. Acta. 1995; 1251, 99-108; Sang, Q. A., Bodden, M. K., and Windsor, L. J. Activation of human progelatinase A by collagenase and matrilysin: activation of procollagenase by matrilysin. J. Protein. Chem. 1996; 15, 243-253; Li, H., Bauzon, D. E., Xu, X., Tschesche, H., Cao, J., and Sang, Q.-X. A. Immunological characterization of cell-surface and soluble forms of membrane type 1 matrix metalloproteinase in human breast cancer cells and in fibroblasts. Molec. Carcinog. 1998; 22, 84-94; Park, H. I., Ni, J., Gerkema, F. E., Liu, D., Belozerov, V. E., and Sang, Q.-X. A. Identification and characterization of human endometase (Matrix metalloproteinase-26) from endometrial tumor. J. Biol. Chem., 2000; 275, 20540-20544). The active concentrations of MMPs were determined by titration with GM6001, a tight-binding MMP inhibitor, as described previously (Park, H. I., Turk, B. E., Gerkema, F. E., Cantley, L. C., and Sang, Q.-X. A. Peptide substrate specificities and protein cleavage sites of human endometase/matrilysin-2/matrix metalloproteinase-26. J. Biol. Chem. 2002; 277, 35168-35175).
(§2) The active inhibitor concentrations were estimated by titrating the mercapto group with 5,5′-dithiobis(2-nitrobenzoic acid) (DTNB; Ellman's reagent) as described previously (Ellman, G. L. A colorimetric method for determining low concentrations of mercaptans. Arch. Biochem. Biophys. 1958; 74, 443-450; Ellman, G. L. Tissue sulfhydryl groups. Arch. Biochem. Biophys. 1959; 82, 70-77; Riddles, P. W., Blakeley, R. L., and Zerner, B. Ellman's reagent: 5,5′-dithiobis(2-nitrobenzoic acid)—a reexamination. Anal. Biochem. 1979; 94, 75-81). Briefly, the reaction of DTNB with the mercapto group produces 2-nitro-5-thiobenzoic acid (TNB). The concentration of TNB is then measured by monitoring the absorbance at 412 nm. Cysteine was used to generate the standard curve with a molar extinction coefficient of 14,000±500 M^−1 cm^−1, which is close to the value in the literature (Riddles, P. W., Blakeley, R. L., and Zerner, B. Ellman's reagent: 5,5′-dithiobis(2-nitrobenzoic acid)—a reexamination. Anal. Biochem. 1979; 94, 75-81).
(§3) The substrate Mca-PLGLDpaAR-NH2 was used to measure inhibition constants (Knight, C. G., Willenbrock. F., and Murphy, G. A novel coumarin-labelled peptide for sensitive continuous assays of the matrix metalloproteinases. FEBS Lett. 1992; 296, 263-266). Enzymatic assays were performed at 25° C. in 50 mM HEPES buffer at pH 7.5 in the presence of 10 mM CaCl2, 0.2 M NaCl, and 0.01% or 0.05% Brij-35 with substrate concentrations of 1 μM. The release of product was monitored by measuring fluorescence (excitation and emission wavelengths of 328 nm and 393 nm, respectively) with a Perkin Elmer Luminescence Spectrophotometer LS 50B connected to a temperature controlled water bath. All stock solutions of inhibitors were in dimethyl sulfoxide. […]

In series [2] the target is MMP-9 (HNG; human neutrophil gelatinase) (Homo sapiens, UniProt P14780). Put plainly: Enzyme kinetic assay, inhibition of MMP-9. To be noted: read-out: Ki (value in parentheses), HNG MMP-9. In kind it is biochemical.
From the text: as §1, §2, §3

In series [3] the target is T2, MMP-2 (HFG; human fibroblast gelatinase) (Homo sapiens, UniProt P08253).
T2 sequence (P08253 110-660): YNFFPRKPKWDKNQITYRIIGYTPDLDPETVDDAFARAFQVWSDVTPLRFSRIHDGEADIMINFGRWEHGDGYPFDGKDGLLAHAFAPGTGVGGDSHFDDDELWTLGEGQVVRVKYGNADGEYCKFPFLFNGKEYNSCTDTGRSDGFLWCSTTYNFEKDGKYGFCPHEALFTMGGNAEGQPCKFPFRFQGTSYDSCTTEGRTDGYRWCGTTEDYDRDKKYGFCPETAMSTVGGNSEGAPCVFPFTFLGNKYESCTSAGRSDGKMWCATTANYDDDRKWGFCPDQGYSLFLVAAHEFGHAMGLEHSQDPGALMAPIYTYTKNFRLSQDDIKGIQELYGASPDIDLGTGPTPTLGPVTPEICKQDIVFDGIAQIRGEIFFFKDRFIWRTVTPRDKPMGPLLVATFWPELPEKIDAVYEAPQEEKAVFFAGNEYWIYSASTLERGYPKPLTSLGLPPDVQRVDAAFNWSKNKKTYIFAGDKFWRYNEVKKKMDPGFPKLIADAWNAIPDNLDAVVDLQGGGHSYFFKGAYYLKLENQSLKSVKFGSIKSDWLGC
Put plainly: Enzyme kinetic assay, inhibition of MMP-2. To be noted: read-out: Ki (value in parentheses), HFG MMP-2. In kind it is biochemical.
From the text: as §1, §2, §3

Series [4] addresses T3, MMP-12 (cdMET; catalytic domain of MMP-12/metalloelastase) (Homo sapiens, UniProt P39900).
T3 construct: catalytic domain of MMP-12/metalloelastase (cdMET)
Put plainly: Enzyme kinetic assay, inhibition of MMP-12. In kind it is biochemical. To be noted: read-out: Ki (value in parentheses), cdMET MMP-12.
From the text: as §1, §2, §3

For series [5], the target named is T4, MMP-14 (cdMT-1; human recombinant catalytic domain of membrane-type 1 matrix metalloproteinase) (Homo sapiens, UniProt P50281).
T4 construct: human recombinant catalytic domain of membrane-type 1 matrix metalloproteinase (cdMT1-MMP)
The series can be described thus: Enzyme kinetic assay, inhibition of MMP-14. To be noted: read-out: Ki (value in parentheses), cdMT-1 MMP-14. In kind it is biochemical.
From the text: as §1, §2, §3

In general, Ki refers to a dissociation constant, usually derived from enzyme kinetics or from competition with a known ligand. By IC50 is commonly meant the concentration at which inhibition is half-maximal. By melting point is commonly meant the temperature of the solid-liquid transition.

Each structure is given as a SMILES string. Where a name gives a salt, the structure may show the parent alone. Some results are limits rather than exact numbers.

Chain of MMP-9 (HNG; human neutrophil gelatinase) (P14780 94-707): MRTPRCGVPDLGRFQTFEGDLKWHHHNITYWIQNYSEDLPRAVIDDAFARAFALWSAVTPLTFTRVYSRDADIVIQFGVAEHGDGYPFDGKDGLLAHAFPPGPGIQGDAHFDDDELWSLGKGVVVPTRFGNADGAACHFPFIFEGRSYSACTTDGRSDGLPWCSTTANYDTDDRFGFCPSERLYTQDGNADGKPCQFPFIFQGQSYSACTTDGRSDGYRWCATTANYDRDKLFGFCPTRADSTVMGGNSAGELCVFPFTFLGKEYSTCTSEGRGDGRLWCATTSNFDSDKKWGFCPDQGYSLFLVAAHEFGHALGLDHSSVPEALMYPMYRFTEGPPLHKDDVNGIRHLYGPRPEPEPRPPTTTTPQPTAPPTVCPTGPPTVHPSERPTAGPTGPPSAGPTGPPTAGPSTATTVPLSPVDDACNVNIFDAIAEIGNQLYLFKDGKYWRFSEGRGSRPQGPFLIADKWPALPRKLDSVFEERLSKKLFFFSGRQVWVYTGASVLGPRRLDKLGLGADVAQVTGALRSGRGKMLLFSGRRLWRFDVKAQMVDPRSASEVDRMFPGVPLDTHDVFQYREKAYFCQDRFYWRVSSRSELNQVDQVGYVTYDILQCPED
T3 sequence (P39900 106-263 limits assumed, species assumed): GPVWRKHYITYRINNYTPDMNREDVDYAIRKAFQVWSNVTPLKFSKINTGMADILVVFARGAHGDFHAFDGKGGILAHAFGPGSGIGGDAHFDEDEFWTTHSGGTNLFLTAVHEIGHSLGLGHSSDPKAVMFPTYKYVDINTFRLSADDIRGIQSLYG

For `NCCCCCC(=O)N1C[C@H](NS(=O)(=O)c2ccc(Oc3ccccc3)cc2)[C@@H](S)C1` (racemic) [Example 7, (±)-N-(6-Aminohexanoyl)-trans-3-(4-phenoxybenzene-sulfonamido)-4-mercaptopyrrolidine Hydrochloride], the Ki in series [1] was determined as 4000 nM; in series [2], 2.3 nM; in series [3], 2.2 nM; in series [4] it was 4.8 nM; in series [5] it was 5 nM.
Take `O=C(OCc1ccccc1)N1C[C@H](NS(=O)(=O)c2ccc(Oc3ccccc3)cc2)[C@@H](S)C1` (racemic) [Example 5, (±)-N-(Benzyloxycarbonyl)-trans-3-(4-phenoxybenzenesulfonamido)-4-mercaptopyrrolidine]: the melting point was 142 to 143 °C. Further, the concentration for half-maximal inhibition (IC50) in series [1] was above 50000 nM. Moreover, in series [2], the Ki was determined as 13 nM. The Ki in series [3] was 24 nM. Also, the Ki in series [4] was found to be 720 nM. Moreover, the Ki in series [5] was 100 nM.
`NC(=O)N1C[C@H](NS(=O)(=O)c2ccc(Oc3ccccc3)cc2)[C@@H](S)C1` (racemic) [Example 1, (±)-N-Carbamoyl-trans-3-(4-phenoxybenzenesulfonamido)-4-mercaptopyrrolidine] returned a melting point of 170 to 171 °C. In addition, the IC50 in series [1] is above 25000 nM. For the same molecule, in series [2], the Ki was found to be 15 nM. Further, the Ki in series [3] was determined as 3.9 nM. The Ki in series [4] was 250 nM. Besides, in series [5], the Ki came to 11 nM.
Take `O=S(=O)(N[C@H]1CNC[C@@H]1S)c1ccc(Oc2ccccc2)cc1` (racemic) [Example 3, (±)-trans-3-(4-Phenoxybenzenesulfonamido)-4-mercaptopyrrolidine Hydrochloride]: the IC50 in series [1] is above 25000 nM. In addition, the Ki in series [2] was 230 nM; in series [3], 27 nM; in series [4], 38 nM; in series [5], 110 nM.
On to `O=C(NCCN1C(=O)c2ccccc2C1=O)N1C[C@H](NS(=O)(=O)c2ccc(Oc3ccccc3)cc2)[C@@H](S)C1` (racemic) [Example 2, (±)-N-(2-Phthalimidoethylaminocarbonyl)-trans-3-(4-phenoxybenzenesulfonamido)-4-mercaptopyrrolidine], for which, in series [1], the IC50 was above 12500 nM. Moreover, the Ki turned out to be 2.4 nM in series [2], 35 nM in series [3], 2 nM in series [4] and 21 nM in series [5].
Regarding `CC(=O)NCCCCCC(=O)N1C[C@H](NS(=O)(=O)c2ccc(Oc3ccccc3)cc2)[C@@H](S)C1` (racemic) [Example 8, (±)-N-(6-Acetamidohexanoyl)-trans-3-(4-phenoxy-benzenesulfonamido)-4-mercaptopyrrolidine], the Ki in series [1] amounted to 3000 nM; in series [2], 1.5 nM; in series [3], 3.8 nM; in series [4], 2 nM; in series [5] it was 4 nM.
In the case of `CN([C@H]1CN(C(N)=O)C[C@@H]1S)S(=O)(=O)c1ccc(Oc2ccccc2)cc1` (racemic) [Example 4, (±)-N-Carbamoyl-trans-3-(N-methyl-4-phenoxybenzenesulfonamido)-4-mercaptopyrrolidine], in series [1], the IC50 is above 25000 nM. Also, the Ki in series [2] was determined as 1.3 nM; in series [3], 2.3 nM; in series [4] it was 160 nM; in series [5], 62 nM.
Turning to `CC(=O)NCCCCCC(=O)N1C[C@H](NS(=O)(=O)c2ccc(-c3ccccc3)cc2)[C@@H](S)C1` (racemic) [Example 9, (±)-N-(6-Acetamidohexanoyl)-trans-3-(4-phenylbenzene-sulfonamido)-4-mercaptopyrrolidine], the Ki turned out to be 2000 nM in series [1]; 400 nM in series [2]; 63 nM in series [3]; 29 nM in series [4]; 70 nM in series [5].
With `O=C(OCc1ccccc1)N1C[C@H](NS(=O)(=O)c2ccc(-c3ccccc3)cc2)[C@@H](S)C1` (racemic) [Example 6, (±)-N-(Benzyloxycarbonyl)-trans-3-(4-phenylbenzenesulfonamido)-4-mercaptopyrrolidine], the IC50 in series [1] is above 12500 nM. In addition, the Ki was 81 nM in series [2], 78 nM in series [3], 710 nM in series [4] and 3100 nM in series [5].
